Measured values from US8227414B2 ([…].R.L., priority 2005, dated 2012).

Assays:
mouse vas deferens = assay: Inhibition of the twitch induced by electrical stimulation of mouse vas deferens; assay type: cell-based
Protocol: The compounds were tested in vitro on Hamster oocytes membranes expressing the human recombinant NOP receptor (CHOhNoP) (receptor binding experiments and GTP?S binding stimulation experiments) and on the mouse vas deferens after electrical stimulation.

[1] = biological target: T1, human recombinant NOP receptor (Homo sapiens, UniProt P41146); assay: Receptor binding, displacement of tritiated N/OFQ on CHOhNOP membranes
T1 construct: expressed in transfected cells; host or cells: CHO cells (CHOhNOP), membranes

mice [2] = assay: Food intake in fed mice; assay type: in vivo, mouse
From the text: 2) measurement of food intake in fed animals, as described by Rizzi et al. (National Congress of the Italian Society of Neuroscience and joint Italian-Swedish Neuroscience Meetings, Ischia (Napoli) 1-4 Oct. 2005);

[3] = Metabolic stability in mouse plasma; assay type: in vitro ADME
Protocol: (§1) Plasma and brain tissue samples were obtained from male Swiss mice (Morini, Reggio Emilia, Italy, 25-30 g). The animal, sacrificed by ether anesthesia, was perfused with physiological heparin solution injected through a needle placed in the left ventricle. Blood was then withdrawn and was centrifuged at 14000×g for 2 minutes at room temperature. After separation from the pellet, the plasma was aliquoted and stocked at −80° C. After blood withdrawal, the animal was perfused further with a physiological solution for 2 minutes before brain removal. The brain tissue was homogenized in 5 vol. (w/v) of Tris/HCl (50 mM, pH 7.4, 0° C.) with a ultra-Turrax (Janke Kunkel, Staufen, FRG) 3 times for 15 seconds each. The supernatant obtained by centrifugation (3000×g for 15 min at 4° C.) was decanted and then stocked at −80° C.
(§2) The protein content of the preparations, determined by the Bradford method, as described in Anal. Biochem., 72, 248-254, 1976, was approximately 8 μg/μl for the brain homogenate and 17 μg/μl for the plasma
(§3) An aliquot of 100 μl solution of each peptide (3 mg/500 μl Tris) was incubated (at a final concentration of […]) with brain homogenate or plasma (450 μl) in a total volume of 1 ml, containing Tris/HCl 50 mM pH 7.4 buffer. Incubation of the aliquots was carried out at 37° C. for various periods up to 240 min. At different incubation times, an aliquot of the solution (100 μl) was removed and the degradation was blocked by addition of 4.5% TFA solution (200 μl). After centrifugation (3000 rpm for 15 minutes) an aliquot (100 μl) of supernatant was injected into RP-HPLC. HPLC analysis was performed in a Kromasil 100-5C18 column (4.6×250 mm) using a Beckman System Gold chromatography system equipped with a variable wave length UV detector.
(§4) The experimental conditions for elution included a gradient analysis with water (solvent A) and acetonitrile (solvent B), both containing 0.1% TFA, at a flow rate of 0.7 ml/min. The following protocol was used for gradient analysis, selected on the basis of the physico-chemical characteristics of the analyte: linear gradient from 5% to 40% B in 20 minutes; linear gradient from 40% to 60% B in 5 minutes; linear gradient from 60% to 5% B in 5 minutes. The eluate was monitored at 220 nm. The half life (T1/2) was obtained by linear regression with the least square method, diagramming the peak areas of each derivative as a function of the incubation times, using at least five points for each analysis.

[4] = biological target: T2, human recombinant opioid receptor mu (MOP) (Homo sapiens, UniProt P35372); assay: Receptor binding on CHO membranes, [3H]-Diprenorphine; conditions: Table 3; CHO cells; [3H]-Diprenorphine
T2 construct: expressed in transfected cells; host or cells: CHO cells, membranes

[5] = biological target: T3, human recombinant opioid receptor delta (DOP) (Homo sapiens, UniProt P41143); assay: as above; conditions: Table 3; CHO cells; [3H]-Diprenorphine
T3 construct: expressed in transfected cells; host or cells: CHO cells, membranes

[6] = Metabolic stability in mouse brain homogenate; assay type: in vitro ADME; conditions: male, Swiss, pH 7.4, mouse brain homogenate, 37° C., mean±standard deviation, read-out: T½ Brain
Protocol: as §1, §2, §3, §4

mice [7] = assay: Tail withdrawal assay in mice; assay type: in vivo, mouse
Protocol: (§5) Control animals received one i.c.v. injection of saline (2 μl/mouse). Each point represents the mean±s.e.m. of at least 4 experiments.
1) tail withdrawal assay, according to the experimental protocols described by Calò et al., (Br J Pharmacol 125, 373-378, 1998) and Rizzi et al. (Clin Pharmacol 18, 56, 2004);

[8] = biological target: T4, human recombinant opioid receptor kappa (KOP) (Homo sapiens, UniProt P41145); assay: Receptor binding on CHO membranes, [3H]-Diprenorphine; conditions: Table 3, CHO cells
T4 construct: expressed in transfected cells; host or cells: CHO cells, membranes

[9] = biological target: T1, human recombinant NOP receptor; assay: Stimulation of GTP?S binding on CHOhNOP membranes; assay type: biochemical
mice [10] = assay: Spontaneous locomotor activity in mice; assay type: in vivo, mouse
Protocol: as §5
3) assay for measurement of spontaneous locomotor activity, as described by Rizzi et al., (Naunyn Schmiedebergs Arch Pharmacol 363, 161-165, 2001.

[11] = test system: vas deferens of knockout mice for the NOP receptor (NOP−/−); assay: Electrically stimulated vas deferens from NOP receptor knockout mice; assay type: cell-based, mouse
[12] = Table 2, wild type (NOP+/+) mice

T1 sequence (P41146 whole entry): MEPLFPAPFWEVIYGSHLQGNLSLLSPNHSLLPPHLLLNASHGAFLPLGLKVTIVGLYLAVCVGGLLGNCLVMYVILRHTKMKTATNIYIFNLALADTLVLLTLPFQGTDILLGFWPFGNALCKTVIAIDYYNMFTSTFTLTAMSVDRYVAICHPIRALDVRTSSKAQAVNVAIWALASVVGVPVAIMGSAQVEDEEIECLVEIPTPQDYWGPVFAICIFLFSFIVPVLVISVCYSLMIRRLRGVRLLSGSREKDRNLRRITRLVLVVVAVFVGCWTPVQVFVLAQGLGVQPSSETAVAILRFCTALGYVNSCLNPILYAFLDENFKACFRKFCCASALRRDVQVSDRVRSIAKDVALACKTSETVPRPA
T3 sequence (P41143 whole entry): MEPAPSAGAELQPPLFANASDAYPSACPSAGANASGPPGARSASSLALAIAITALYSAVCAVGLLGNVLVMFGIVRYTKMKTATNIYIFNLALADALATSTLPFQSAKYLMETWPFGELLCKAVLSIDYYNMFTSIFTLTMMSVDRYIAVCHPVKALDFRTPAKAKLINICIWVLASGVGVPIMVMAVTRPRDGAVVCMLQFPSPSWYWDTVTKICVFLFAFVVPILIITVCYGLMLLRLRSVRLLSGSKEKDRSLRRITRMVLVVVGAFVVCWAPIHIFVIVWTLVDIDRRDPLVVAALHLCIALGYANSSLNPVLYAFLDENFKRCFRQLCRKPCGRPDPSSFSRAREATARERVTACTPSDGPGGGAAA
T2 sequence (P35372 whole entry): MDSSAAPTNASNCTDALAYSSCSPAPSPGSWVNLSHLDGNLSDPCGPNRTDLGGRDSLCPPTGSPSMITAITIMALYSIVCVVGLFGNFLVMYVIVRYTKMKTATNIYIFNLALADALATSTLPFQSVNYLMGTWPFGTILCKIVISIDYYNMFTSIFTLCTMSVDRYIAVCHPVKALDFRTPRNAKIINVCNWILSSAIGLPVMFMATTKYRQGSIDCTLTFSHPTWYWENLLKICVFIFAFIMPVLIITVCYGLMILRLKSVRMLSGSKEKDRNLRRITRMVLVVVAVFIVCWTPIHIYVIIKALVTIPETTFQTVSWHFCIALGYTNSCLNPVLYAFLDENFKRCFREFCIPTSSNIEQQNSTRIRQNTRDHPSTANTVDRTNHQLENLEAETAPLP
T4 sequence (P41145 whole entry): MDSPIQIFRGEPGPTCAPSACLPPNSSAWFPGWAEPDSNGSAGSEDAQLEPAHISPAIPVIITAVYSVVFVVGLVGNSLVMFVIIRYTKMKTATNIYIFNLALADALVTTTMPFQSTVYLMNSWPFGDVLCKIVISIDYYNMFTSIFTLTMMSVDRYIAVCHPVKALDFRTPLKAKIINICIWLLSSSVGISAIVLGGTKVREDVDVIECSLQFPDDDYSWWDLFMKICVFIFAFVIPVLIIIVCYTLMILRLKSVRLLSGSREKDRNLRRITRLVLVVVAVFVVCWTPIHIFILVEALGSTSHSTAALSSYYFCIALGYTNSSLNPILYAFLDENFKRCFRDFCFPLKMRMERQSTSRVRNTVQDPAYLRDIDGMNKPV

C[C@H](NC(=O)[C@H](CO)NC(=O)[C@H](CCCCN)NC(=O)[C@H](CCCNC(=N)N)NC(=O)C(C)(C)NC(=O)CNC(=O)[C@@H](NC(=O)[C@H](Cc1ccc(F)cc1)NC(=O)CNC(=O)CNC(=O)[C@@H](N)Cc1ccccc1)[C@@H](C)O)C(=O)N[C@@H](CCCNC(=N)N)C(=O)N[C@@H](CCCCN)C(=O)N[C@@H](CCCNC(=N)N)C(=O)N[C@@H](CCCCN)C(=O)N[C@@H](CC(N)=O)C(=O)N[C@@H](CCC(N)=O)C(N)=O [UFP-112, [(pF)Phe^4,Aib^7,Arg^14,Lys^15]N/OFQ-NH2]
Inhibition of the twitch induced by electric stimulation, Agonist Emax (mouse vas deferens; Table 1): −85 ± 2% | Inhibition of the twitch induced by electric stimulation, Agonist pEC50 (mouse vas deferens; Table 1): 9.48 | Emax NOP+/+ (mouse vas deferens; [12]): 93 ± 3% | pEC50 NOP+/+ (mouse vas deferens; [12]): 8.94 | Kinetics of action and reversibility of the effects after washing (mouse vas deferens; compared with N/OFQ, equi-effective concentrations): much slower | Increase in potency compared to the reference sequence (mouse vas deferens; mouse vas deferens): more than 100 fold | Action in the mouse vas deferens in presence of naloxone (mouse vas deferens; naloxone present): not modified | Receptor binding PKi ([1]; Table 1, membrane of CHOhNOP cells, tritiated N/OFQ): 10.55 | pKi NOP ([1]; Table 3, CHO cells, [3H]N/OFQ): 10.55 | Hyperphagic effects in NOP−/− mice (mice [2]; NOP−/− mice): absent | Potency relative to N/OFQ in food intake (mice [2]; fed mice): 100 fold | Effect on food intake (mice [2]; fed mice, equi-effective doses): significant increase | half-life at 6 μg/μl ([3]; male, Swiss, mouse, plasma, pH 7.4, mouse plasma, 37° C., mean±standard deviation, read-out: T½ Plasma): 2.78 ± 0.15 h | Plasma T½ compared to N/OFQ ([3]; mouse plasma): almost three-fold longer | pKi MOP [4]: 7.13 | pKi DOP [5]: 6.37 | half-life at 6 μg/μl [6]: 0.188 ± 0.0233 h | Effect in tail withdrawal assay, i.c.v. (mice [7]; 0.001-0.1 nmol, intracerebroventricular): pronociceptive effects | Effect in tail withdrawal assay, i.t. (mice [7]; 0.001-0.1 nmol, intrathecal): antinociceptive effects | Tail withdrawal effects in NOP−/− mice (mice [7]; NOP−/− mice): absent | Duration of action in tail withdrawal test (mice [7]; equi-effective doses): > 120 min | Potency in vivo relative to N/OFQ (mice [7]; stated for each in vivo assay (tail withdrawal, food intake, locomotor activity)): about 100 fold | pKi KOP [8]: 8.36 | Stimulation upon binding GTP?S, Agonist pEC50 ([9]; Table 1, membrane of CHOhNOP cells): 10.55 | Emax ([9]; read-out: Stimulation upon binding GTP?S, Agonist Emax): 118 ± 9% | Time after which locomotor effect ended (mice [10]; 0.1 nmol i.c.v.): about 6 h | Effect on spontaneous locomotor activity (mice [10]; i.c.v., N/OFQ 10 nmol, UFP-112 0.1 nmol): inhibited the locomotor activity | Inhibitory effect on the contraction induced by electrical stimulation in NOP−/− vas deferens [11]: disappeared | pEC50 NOP−/− ([11]; Table 2): <6
